Values joined by “and” are separate entries in the source; they are usually repeats but may differ in a detail not shown here. Equal values may be shown once.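 Five compound concentrations were applied to cells in 96-well plates for 48 hours; endpoints were derived by simple linear interpolation of the resulting dose-response curve. Abbreviation: GI50, concentration required for 50% inhibition of growth.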 Active and inactive are the calls of the source. Rule as the data show it: active = GI50 up to about 1.1 µM and inactive = higher.
What was measured:
Assay in all cases: growth of human tumour cells (NCI), 48 h
[1] = system: HOP-18
[2] = system: XF498
[3] = system: LXFL 529
[4] = system: SNB-78
[5] = system: DMS-114
[6] = system: M19-MEL
[7] = system: DLD-1
[8] = system: DMS-273
[9] = system: RXF 631

Row | SMILES | GI50 [1] | GI50 [2] | GI50 [3] | GI50 [4] | GI50 [5] | GI50 [6] | GI50 [7] | GI50 [8] | GI50 [9]
1 | O=C1C=CC2(O)OCC3C=C4O[C@@H]5OC6(CCCCC6)O[C@@H]5C4[C@@H]2[C@@H]13 (some centres undefined) | > 100 µM (inactive) | 27.2 µM (inactive) | 15.1 µM (inactive) | 24.4 µM (inactive) | 21.5 µM (inactive) | 21.1 µM (inactive) | 22.4 µM (inactive) | 50.4 µM (inactive) | 
2 | CC(CN1CC(=O)NC(=O)C1)N1CC(=O)NC(=O)C1 (centres undefined) [RAZOXANE] | 277 µM (inactive) | 234 µM (inactive) |  | 449 µM (inactive) | 67.9 µM (inactive) | 299 µM (inactive) | 245 µM (inactive) | 513 µM (inactive) | 
3 | COC1/C(=C\C(=O)OC(C)(C)C)c2ccccc2N1C(C)=O (centres undefined) | > 100 µM (inactive) | 57.5 µM (inactive) | > 100 µM (inactive) | > 100 µM (inactive) | 54.3 µM (inactive) | > 100 µM (inactive) | > 100 µM (inactive) | > 100 µM (inactive) | > 100 µM (inactive)
4 | Nc1ncnc2c1ncn2C1CC(OCc2ccccc2[N+](=O)[O-])C(CO)O1 (centres undefined) | 26.6 µM (inactive) | 42.2 µM (inactive) | 13.6 µM (inactive) | 18.2 µM (inactive) | 16.4 µM (inactive) | 16.1 µM (inactive) | 23.7 µM (inactive) | 18.4 µM (inactive) | 
5 | O=C(O)Cn1c(=O)[nH]c(=O)c2c1ncn2Cc1ccccc1 |  | > 100 µM (inactive) | > 100 µM (inactive) | > 100 µM (inactive) | > 100 µM (inactive) | > 100 µM (inactive) | > 100 µM (inactive) | > 100 µM (inactive) | > 100 µM (inactive)
6 | CSc1nnc2n1-c1ccccc1SCC2 | > 100 µM (inactive) | > 100 µM (inactive) | > 100 µM (inactive) | > 100 µM (inactive) | > 100 µM (inactive) | > 100 µM (inactive) | > 100 µM (inactive) | > 100 µM (inactive) | 
7 | CCCCCC(=O)Cc1cc(OC)cc2c1C(=O)Oc1cc(O)c(C(=O)O)c(CC(=O)CCCCC)c1O2 |  | > 100 µM (inactive) | 55.5 µM (inactive) | 44.4 µM (inactive) | 33.9 µM (inactive) | 26.2 µM (inactive) | 35.6 µM (inactive) | 32.1 µM (inactive) | 35.6 µM (inactive)
8 | CCCCOC1CC2(c3ccc(OC)cc3)C(=O)c3ccccc3N2O1 (centres undefined) |  | > 10 µM (inactive) |  | > 10 µM (inactive) | 30 µM (inactive) | > 10 µM (inactive) |  | > 10 µM (inactive) | > 10 µM (inactive)
9 | COc1ccc(/C=c2/sc3n(c2=O)NC(c2ccc(Cl)cc2)NN=3)cc1 (centres undefined) |  | 51.8 µM (inactive) | > 100 µM (inactive) | > 100 µM (inactive) | 58.5 µM (inactive) | > 100 µM (inactive) | > 100 µM (inactive) | > 100 µM (inactive) | 
10 | Cc1nc(-c2nc(C)c(C(=O)NNC(=O)C[n+]3ccccc3)s2)sc1C(=O)NNC(=O)C[n+]1ccccc1 |  |  | 91 µM (inactive) | 54.8 µM (inactive) | 66.8 µM (inactive) | > 100 µM (inactive) | 19.3 µM (inactive) |  | 
11 | Cc1cc(N(CCC#N)CCC#N)ccc1/C=C1\N=C(c2cc([N+](=O)[O-])ccc2Cl)N(c2cccc(Cl)c2)C1=O | > 100 µM (inactive) |  | > 100 µM (inactive) | > 100 µM (inactive) | > 100 µM (inactive) | > 100 µM (inactive) | > 100 µM (inactive) | > 100 µM (inactive) | > 100 µM (inactive)
12 | COC(=O)CSc1ccccc1 | > 100 µM (inactive) | > 100 µM (inactive) | > 100 µM (inactive) | > 100 µM (inactive) |  | > 100 µM (inactive) | > 100 µM (inactive) | > 100 µM (inactive) | > 100 µM (inactive)
13 | COc1cc2cc[n+]3c4cc(OC)c(OC)cc4c(C)cc3c2cc1OC | > 100 µM (inactive) | > 100 µM (inactive) | 35.6 µM (inactive) | > 100 µM (inactive) | > 100 µM (inactive) | > 100 µM (inactive) | > 100 µM (inactive) | > 100 µM (inactive) | > 100 µM (inactive)
14 | Nc1nnc2c(-c3ccccc3)n[nH]c2n1 |  |  | 77.4 µM (inactive) | 49.3 µM (inactive) | > 100 µM (inactive) |  |  | 50.9 µM (inactive) | 
15 | COc1ccc(OC)c(/C=C/[N+](=O)[O-])c1 | 1.85 µM (inactive) | 2.94 µM (inactive) | 1.91 µM (inactive) | 6.84 µM (inactive) | 4.74 µM (inactive) | 2.39 µM (inactive) | 2.88 µM (inactive) | 2.61 µM (inactive) | 2.83 µM (inactive)
16 | O=C(O)c1[nH]c(C(=O)O)c(CC(F)(F)C(F)(F)C(F)(F)F)c1CC(F)(F)C(F)(F)C(F)(F)F | > 100 µM (inactive) | > 100 µM (inactive) | > 100 µM (inactive) | > 100 µM (inactive) | > 100 µM (inactive) | > 100 µM (inactive) | > 100 µM (inactive) | > 100 µM (inactive) | > 100 µM (inactive)
17 | C1=Cc2nc1c(-c1ccccc1)c1nc(c(-c3ccccc3)c3ccc([nH]3)c(-c3ccccc3)c3ccc([nH]3)c2-c2ccccc2)C=C1 [TETRAPHENYLPORPHYRIN] | > 100 µM (inactive) |  | > 100 µM (inactive) | > 100 µM (inactive) | > 100 µM (inactive) | > 100 µM (inactive) | > 100 µM (inactive) | > 100 µM (inactive) | > 100 µM (inactive)
18 | C=CCN1/C(=C2\SC(=S)N(c3ccc(C)cc3)C2=O)Sc2c1nc[nH]c2=O |  | > 100 µM (inactive) | > 100 µM (inactive) | > 100 µM (inactive) | 76.9 µM (inactive) | > 100 µM (inactive) | > 100 µM (inactive) | > 100 µM (inactive) | 
19 | CCCCCCCCCCCCCP(=O)(O)OCC | > 100 µM (inactive) |  | > 100 µM (inactive) | > 100 µM (inactive) | > 100 µM (inactive) | > 100 µM (inactive) | > 100 µM (inactive) |  | > 100 µM (inactive)
20 | CCOC(=O)CCn1ncc(Cl)c(Cl)c1=O | 3.99 µM (inactive) | 20.5 µM (inactive) | 3.84 µM (inactive) | 6.22 µM (inactive) | 2.1 µM (inactive) | 2.58 µM (inactive) | 5.5 µM (inactive) | 9.46 µM (inactive) | 2.97 µM (inactive)
21 | O=[N+]([O-])c1ccc(Cl)cc1C1SCc2nc3ccccc3n21 (centres undefined) | 13 µM (inactive) | 65.5 µM (inactive) | 48.3 µM (inactive) | 42.9 µM (inactive) | 35.6 µM (inactive) | 61.7 µM (inactive) | 37.2 µM (inactive) | 31.6 µM (inactive) | 37.1 µM (inactive)
22 | COC(=O)/C(=C/c1ccc(OC)cc1)NC(=O)c1ccccc1 |  |  | > 100 µM (inactive) |  | > 100 µM (inactive) |  | > 100 µM (inactive) |  | 
23 | NCCCC1NC(=O)/C(=C(O)/C=C/C2CCC[C@@H]2CC2SCCS2)C1=O (some centres undefined) | 82.6 µM (inactive) |  | 75 µM (inactive) |  | 86.3 µM (inactive) | > 100 µM (inactive) | > 100 µM (inactive) | 74.8 µM (inactive) | 
24 | O=C1/C(=C\c2ccccc2)C2/C(=C\c3ccccc3)C(=O)/C(=C\c3ccccc3)C2/C1=C\c1ccccc1 (centres undefined) | 48 µM (inactive) |  | 0.681 µM (active) |  | 1.73 µM (inactive) | 1.53 µM (inactive) | 1.22 µM (inactive) | 0.964 µM (active) | 3.12 µM (inactive)
25 | CNC(=O)NCCCC(NC(C)=O)C(=O)NCc1ccccc1 (centres undefined) |  |  | > 100 µM (inactive) | > 100 µM (inactive) | > 100 µM (inactive) | > 100 µM (inactive) | > 100 µM (inactive) | > 100 µM (inactive) | > 100 µM (inactive)
26 | COC(=O)CC(C(C(C)=O)C(=O)OCc1ccccc1)N1C(=O)OC(c2ccccc2)C1c1ccccc1 (centres undefined) |  | 67.1 µM (inactive) | 49.1 µM (inactive) and 50.4 µM (inactive) |  | 30.5 µM (inactive) and 39.4 µM (inactive) | 85.1 µM (inactive) and 73.8 µM (inactive) | 64.7 µM (inactive) | > 100 µM (inactive) and 78.5 µM (inactive) | 89.7 µM (inactive)
27 | COc1ccc(NCc2cc(OC)c(OC)c(OC)c2)cc1 |  |  | 0.408 µM (active) |  |  |  | 0.421 µM (active) | 0.178 µM (active) | 
